# Measurements taken from patent US12502369B2, “Methods of cancer treatment” (K-GEN, INC., priority 2015, dated 2025).
# Entries after “also recorded” stand apart in the source; their conditions may differ.
# Legend:
# [1] = system: PKC isoforms and Erk1/2 in Mino and Namalwa cells; experiment: PKC inhibitor effect on K101A-mediated phosphorylation of PKCs and Erk1/2 in Mino and Namalwa cells; format: cell-based; settings: for phosphorylation of PKCδ at Tyr311 induced by PKC inhibitor: inhibitor pre-treatment 30 minutes; for K101A-induced phosphorylation of PKCμ at Ser916 or Ser744/748, PKCδ at Thr505, and Erk: inhibitor pre-treatment 30 minutes (Go6983, Sotrastaurin 1 μM)
# Procedure: Cell lysis, protein quantitation, and Western blot analysis were performed as described above in Example 2 and 4. […] Again, these PKC inhibitor studies indicate the anti-proliferative effects of the PKC activators appear to be positively associated with phosphorylation and activation of novel PKC isoforms and PKCγ, and negatively associated with the phosphorylation of PKCδ at Tyr311.
# [2] = system: PKC isoforms and Erk1/2 in A549 cells; experiment: PKC inhibitor effect on PKC activator-mediated phosphorylation of PKCs and Erk1/2, A549; format: cell-based; settings: 30 minutes; for K101A- or K102-induced phosphorylation of PKCμ at Ser916 or Ser744/748, PKCδ at Thr505, and Erk / phosphorylation of PKCδ at Tyr311 induced by PKC inhibitor: inhibitor pre-treatment 1 μM
# Procedure: To assay if PKC inhibitors have any effects on the PKC activator-mediated phosphorylation of PKCs, A549 cells were pre-treated with DMSO, PKC inhibitors Go6983 (0.3 μM or 1 μM) or Sotrastaurin (0.3 μM or 1 μM) for 30 minutes before adding PKC activators K101A (1 μM) or K102 (0.1 μM) for another 30 minutes (FIG. 22). Cell lysis, protein quantitation, and Western blot analysis were performed as described above in Example 2 and 4. […] Phosphorylation of PKCα/β at Thr638/641 was not affected by the inhibitors (FIG. 22A). […] These PKC inhibitor studies indicate that blocking phosphorylation and activation of various isoforms of PKC is correlated with inhibition of the anti-proliferative effects of the PKC activators.
# Cell lysis, protein quantitation, and Western blot analysis were performed as described above in Example 2 and 4. […] These PKC inhibitor studies also indicate that phosphorylation and activation of novel PKC isoforms and PKCμ is required for the anti-proliferative effects of the PKC activators whereas phosphorylation of PKCδ at Tyr311 is correlated with inhibition of the anti-proliferative effects of PKC activators.
# A549 = experiment: Proliferation assay, PKC inhibitor in combination with PKC activators, A549; format: cell-based; settings: for effect on PKC activator-mediated proliferation inhibition: K101A with Go6976 (0.1 or 0.3 μM), GF109203X (0.3 or 1 μM), Enzastaurin (0.3 or 1 μM); for inhibition of K101A anti-proliferative effects: higher concentrations of inhibitor
# Procedure: To assess if activation of different classes of PKC is required for anti-proliferation effect of PKC activators, Sotrastaurin, a PKC inhibitor targeting both conventional and novel classes of PKC, was tested in combination with PKC activators in the proliferation assays. Proliferation assay in lung cancer cell line A549 (FIG. 15) and in pancreatic cell line MiaPaCa-2 (FIG. 16) was performed as described in Example 1. […] Then, K101A or K102 was tested in 8- or 9-point titrations in the presence of DMSO or Sotrastaurin (0.1 μM or 1 μM). […] Thus, PKC activator-mediated anti-proliferation effects are dependent on activation of PKC isoforms from conventional, or novel, or both classes of PKCs.
# To assess if PKC activation is required for anti-proliferation effect of PKC activators in cancer cell lines that are sensitive to these activators, a pan-PKC inhibitor Go6983, targeting classes of PKCs (conventional, novel, atypical, and PKCμ), was tested in combination with PKC activators in the proliferation assays. Proliferation assay in lung cancer cell line A549 (FIG. 17) and in pancreatic cell line MiaPaCa-2 (FIG. 18) was performed as described in Example 1. […] Then, K101A or K102 was tested in 8- or 9-point titrations in the presence of DMSO or Go6983 (0.1 μM or 1 μM). […] Thus, PKC activation is required for anti-proliferation effect of PKC activators.
# Proliferation assay was performed as described in Example 1. […] Thus, PKC activator-mediated anti-proliferation effects appear mainly dependent on activation of novel PKC isoforms.
# Mino cells = experiment: Proliferation assay, PKC inhibitors in combination with PKC activators, Mino; format: cell-based; settings: Sotrastaurin 0.3/1 μM, Go6983 0.1/1 μM, Go6976 0.3/1 μM, Enzastaurin 1/3 μM
# Procedure: PKC inhibitor studies were performed as described in Example 8, 9, and 10. […] Thus, PKC activator-mediated anti-proliferation effects may be dependent on activation of PKC isoforms from the novel PKC class.
# Namalwa cells = experiment: Proliferation assay, PKC inhibitors in combination with PKC activators, Namalwa; format: cell-based; settings: Sotrastaurin 0.3/1 μM, Go6983 0.1/1 μM, Go6976 0.3/1 μM, Enzastaurin at very high concentration of 10 μM
# Procedure: PKC inhibitor studies were performed as described in Example 15. […] Thus, PKC activator-mediated anti-proliferation effects may be dependent on activation of novel PKC isoforms.
# PKCε = PKCε (Homo sapiens, UniProt Q02156); settings: cited from earlier work
# PKCα, β, & γ = settings: cited from earlier work
# PKCα & β = settings: cited from earlier work
# MiaPaCa-2 = experiment: Proliferation assay, PKC inhibitor in combination with PKC activators, MiaPaCa-2; format: cell-based; settings: Sotrastaurin 1 μM with K101A or K102
# [3] = inhibitor pre-treatment 0.3 μM or 1 μM
# Chain of PKCε (Q02156 whole entry): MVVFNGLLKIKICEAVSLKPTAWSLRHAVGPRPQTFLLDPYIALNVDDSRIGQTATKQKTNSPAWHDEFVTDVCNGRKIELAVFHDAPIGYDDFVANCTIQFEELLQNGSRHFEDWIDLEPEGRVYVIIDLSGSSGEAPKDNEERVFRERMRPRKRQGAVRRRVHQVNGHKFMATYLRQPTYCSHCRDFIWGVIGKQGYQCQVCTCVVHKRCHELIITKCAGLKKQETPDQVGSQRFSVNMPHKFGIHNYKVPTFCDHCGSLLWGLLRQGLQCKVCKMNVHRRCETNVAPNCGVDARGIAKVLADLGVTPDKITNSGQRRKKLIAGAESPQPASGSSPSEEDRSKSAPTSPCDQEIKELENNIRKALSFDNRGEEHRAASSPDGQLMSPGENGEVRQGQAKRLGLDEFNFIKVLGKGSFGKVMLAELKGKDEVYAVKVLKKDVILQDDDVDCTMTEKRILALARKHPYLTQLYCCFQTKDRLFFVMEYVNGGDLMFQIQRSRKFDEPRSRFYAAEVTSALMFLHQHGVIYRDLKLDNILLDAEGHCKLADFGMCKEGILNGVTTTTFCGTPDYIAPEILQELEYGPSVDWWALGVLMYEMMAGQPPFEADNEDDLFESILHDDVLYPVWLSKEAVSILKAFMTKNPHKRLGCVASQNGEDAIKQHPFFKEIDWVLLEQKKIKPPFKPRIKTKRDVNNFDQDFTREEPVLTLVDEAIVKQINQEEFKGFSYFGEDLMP
smiles,measurement,setting,value
Cn1cc(C2=C(c3cn(C4CCN(Cc5ccccn5)CC4)c4ccccc34)C(=O)NC2=O)c2ccccc21 [Enzastaurin],phosphorylation of PKCδ at Tyr311 induced by PKC inhibitor,[1],induced moderate phosphorylation
same,"K101A- or K102-induced phosphorylation of PKCμ at Ser916 or Ser744/748, PKCδ at Thr505, and Erk",[2],minimal effects
same,phosphorylation of PKCδ at Tyr311 induced by PKC inhibitor,[2],induced phosphorylation of PKCδ at Tyr311 partially
same,effect on PKC activator-mediated proliferation inhibition,A549,minimal effects; also recorded: weak inhibition
same,inhibition of K101A anti-proliferative effects,A549,Slight inhibition
same,effect on PKC activator-mediated anti-proliferation effects,Mino cells,partially blocked
same,effect on PKC activator-mediated anti-proliferation effects,Namalwa cells,marginally blocked
same,Ki,PKCε,110 nM
CN(C)CCCn1cc(C2=C(c3c[nH]c4ccccc34)C(=O)NC2=O)c2ccccc21 [GF109203X],Ki,"PKCα, β, & γ",~20 nM
same,"K101A- or K102-induced phosphorylation of PKCμ at Ser916 or Ser744/748, PKCδ at Thr505, and Erk",[2],minimal effects
same,phosphorylation of PKCδ at Tyr311 induced by PKC inhibitor,[2],induced phosphorylation of PKCδ at Tyr311 partially
same,effect on PKC activator-mediated proliferation inhibition,A549,minimal effects; also recorded: weak inhibition
same,inhibition of K101A anti-proliferative effects,A549,Slight inhibition
Cn1c2ccccc2c2c3c(c4c5ccccc5n(CCC#N)c4c21)CNC3=O [Go6976],Ki,PKCα & β,2.3 to 6.2 nM
same,phosphorylation of PKCδ at Tyr311 induced by PKC inhibitor,[1],did not induce phosphorylation
same,"K101A-induced phosphorylation of PKCμ at Ser916 or Ser744/748, PKCδ at Thr505, and Erk",[1],little effect
same,"K101A- or K102-induced phosphorylation of PKCμ at Ser916 or Ser744/748, PKCδ at Thr505, and Erk",[2],minimal effects
same,phosphorylation of PKCδ at Tyr311 induced by PKC inhibitor,[2],induced no phosphorylation of PKCδ at Tyr311
same,effect on PKC activator-mediated proliferation inhibition,A549,minimal effects; also recorded: no inhibition
same,effect on PKC activator-mediated anti-proliferation effects,Mino cells,did not block
same,effect on PKC activator-mediated anti-proliferation effects,Namalwa cells,did not block
CN1CCN(c2nc(C3=C(c4c[nH]c5ccccc45)C(=O)NC3=O)c3ccccc3n2)CC1 [Sotrastaurin],phosphorylation of PKCδ at Tyr311 induced by PKC inhibitor,[1],induced robust phosphorylation
same,"K101A-induced phosphorylation of PKCμ at Ser916 or Ser744/748, PKCδ at Thr505, and Erk",[1],completely abolished
same,K101A- and K102-induced phosphorylation of Erk1/2,[2]; [3],blocked dose-dependently
same,"K101A- or K102-induced phosphorylation, P-PKCμ (Ser916), P-PKCμ (Ser744/748), P-PKCδ (Thr505)",[2]; [3],blocked in a dose-dependent manner
same,Phosphorylation of PKCα/β at Thr638/641,[2]; [3],not affected
same,"K101A- or K102-induced phosphorylation of PKCμ at Ser916 or Ser744/748, PKCδ at Thr505, and Erk",[2],completely abolished
same,phosphorylation of PKCδ at Tyr311 induced by PKC inhibitor,[2],induced phosphorylation of PKCδ at Tyr311
same,effect on PKC activator-mediated anti-proliferation effects,A549; Sotrastaurin 1 μM with K101A or K102,completely abolished
same,effect on PKC activator-mediated anti-proliferation effects,Mino cells,dose-dependently blocked
same,effect on PKC activator-mediated anti-proliferation effects,MiaPaCa-2,completely abolished
same,effect on PKC activator-mediated anti-proliferation effects,Namalwa cells,dose-dependently blocked
